23 compounds from US10927123B2, “Modulators of the beta-3 adrenergic receptor useful for the treatment or prevention of disorders related thereto” (Arena Pharmaceuticals, Inc., priority 2016, dated 2021) can be followed below.

This test deals with Beta-3 Adrenergic Receptor (Homo sapiens (Human), UniProt P13945). As to the kind of experiment: HTRF cAMP antagonist assay (IC50 determination). The class given is cell-based. To be noted: CHO-K1 cells stably expressing recombinant receptor; antagonism of isoproterenol at EC90; cAMP readout. Put shortly: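 In this functional readout, recombinant CHO-K1 cells received compound, then isoproterenol at its EC90. After 1 h at room temperature, cAMP levels were determined by HTRF using an on-plate standard curve, and IC50 values were fitted.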
A general note: TR-FRET usually uses a lanthanide donor and a delayed reading to cut background.

As usually defined, the IC50 is the point on the concentration scale where inhibition reaches its midpoint.

Sequence of Beta-3 Adrenergic Receptor (P13945 whole entry, species assumed): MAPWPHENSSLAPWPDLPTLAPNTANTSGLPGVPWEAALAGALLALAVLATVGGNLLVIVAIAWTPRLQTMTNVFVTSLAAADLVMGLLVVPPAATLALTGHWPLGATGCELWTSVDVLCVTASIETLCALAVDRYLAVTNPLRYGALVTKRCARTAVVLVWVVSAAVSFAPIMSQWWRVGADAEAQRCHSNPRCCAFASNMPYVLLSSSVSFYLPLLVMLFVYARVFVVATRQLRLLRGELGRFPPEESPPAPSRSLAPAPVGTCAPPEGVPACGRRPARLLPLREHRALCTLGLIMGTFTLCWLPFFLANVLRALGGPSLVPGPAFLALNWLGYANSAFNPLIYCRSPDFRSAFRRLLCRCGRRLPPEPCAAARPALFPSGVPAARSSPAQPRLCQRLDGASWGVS

As for `O=S(=O)(c1cccc(-c2ccc(CNCC(F)(F)F)cc2)c1)N1CCC2(CC1)C[C@@H](NC[C@H](O)COc1cccc(S(=O)(=O)C3(CO)CC3)c1)CO2` [Compound 264, (S)-1-(3-(1-(hydroxymethyl)cyclopropylsulfonyl)phenoxy)-3-((R)-8-(4′-((2,2,2-trifluoroethylamino)methyl)biphenyl-3-ylsulfonyl)-1-oxa-8-azaspiro[4.5]decan-3-ylamino)propan-2-ol], the IC50 stood at 980 nM.
As for `CC(=O)NCCc1ccc(-c2cccc(S(=O)(=O)N3CCC4(CC3)C[C@H](NC[C@H](O)COc3cccc(S(=O)(=O)C5(CO)CC5)c3)CO4)c2)cc1` [Compound 190, N-(2-(3′-((S)-3-((S)-2-hydroxy-3-(3-(1-(hydroxymethyl)cyclopropylsulfonyl)phenoxy)propylamino)-1-oxa-8-azaspiro[4.5]decan-8-ylsulfonyl)biphenyl-4-yl)ethyl)acetamide], the IC50 stood at 31.3 nM.
Turning to `O=S(=O)(c1cccc(OC[C@@H](O)CN[C@H]2COC3(CCN(S(=O)(=O)c4cnc5ccc(F)cc5c4O)CC3)C2)c1)C1CC1` [Compound 325, 3-((R)-3-((S)-3-(3-(cyclopropylsulfonyl)phenoxy)-2-hydroxypropylamino)-1-oxa-8-azaspiro[4.5]decan-8-ylsulfonyl)-6-fluoroquinolin-4-ol], the 50% inhibitory concentration (IC50) was 34 nM.
Turning to `COc1ccc(S(=O)(=O)N2CCC3(CC2)C[C@@H](NC[C@H](O)COc2cccc(S(=O)(=O)C4(CO)CC4)c2)CO3)cc1-c1ccc(CN)cc1` [Compound 208, (S)-1-((R)-8-(4′-(aminomethyl)-6-methoxybiphenyl-3-ylsulfonyl)-1-oxa-8-azaspiro[4.5]decan-3-ylamino)-3-(3-(1-(hydroxymethyl)cyclopropylsulfonyl)phenoxy)propan-2-ol], the IC50 came to 34.8 nM.
Take `CCn1cc(S(=O)(=O)N2CCC3(CC2)C[C@@H](NC[C@H](O)COc2cccc(S(=O)(=O)C4CC4)c2)CO3)c(=O)c2cc(C)ccc21` [Compound 317, 3-((R)-3-((S)-3-(3-(cyclopropylsulfonyl)phenoxy)-2-hydroxypropylamino)-1-oxa-8-azaspiro[4.5]decan-8-ylsulfonyl)-1-ethyl-6-methylquinolin-4(1H)-one]: the IC50 was 104 nM.
The same measure for `CS(=O)(=O)c1cccc(OC[C@H](O)CNC2COC3(CCN(S(=O)(=O)c4ccc5ccccc5c4)CC3)C2)c1` (stereo partly drawn) [Compound 2, (2R)-1-(3-(methylsulfonyl)phenoxy)-3-(8-(naphthalen-2-ylsulfonyl)-1-oxa-8-azaspiro[4.5]decan-3-ylamino)propan-2-ol]: 44.8 nM.
The same measure for `O=S(=O)(CCO)c1cccc(OC[C@@H](O)CN[C@H]2COC3(CCN(S(=O)(=O)c4ccc5c(c4)OCCC5)CC3)C2)c1` [Compound 87, (S)-1-((R)-8-(chroman-7-ylsulfonyl)-1-oxa-8-azaspiro[4.5]decan-3-ylamino)-3-(3-(2-hydroxyethylsulfonyl)phenoxy)propan-2-ol]: 41.1 nM; for `CC(F)S(=O)(=O)c1cccc(OC[C@@H](O)CN[C@H]2COC3(CCN(S(=O)(=O)c4cnc5c(c4)N(C)CCO5)CC3)C2)c1` (stereo partly drawn) [Compound 235, (2S)-1-(3-(1-fluoroethylsulfonyl)phenoxy)-3-((R)-8-(1-methyl-2,3-dihydro-1H-pyrido[2,3-b][1,4]oxazin-7-ylsulfonyl)-1-oxa-8-azaspiro[4.5]decan-3-ylamino)propan-2-ol]: 15 nM; for `CCOc1ccc(-c2ccc(C(C)(C)CN)cc2)cc1S(=O)(=O)N1CCC2(CC1)C[C@H](NC[C@H](O)COc1cccc(S(=O)(=O)C3(CO)CC3)c1)CO2` [Compound 176, (S)-1-((S)-8-(4′-(1-amino-2-methylpropan-2-yl)-4-ethoxybiphenyl-3-ylsulfonyl)-1-oxa-8-azaspiro[4.5]decan-3-ylamino)-3-(3-(1-(hydroxymethyl)cyclopropylsulfonyl)phenoxy)propan-2-ol]: 58.4 nM.
The same measure for `CS(=O)(=O)c1cccc(OC[C@H](O)CN[C@H]2COC3(CCN(S(=O)(=O)c4ccc5ccccc5c4)CC3)C2)c1` [Compound 23, (R)-1-(3-(methylsulfonyl)phenoxy)-3-((R)-8-(naphthalen-2-ylsulfonyl)-1-oxa-8-azaspiro[4.5]decan-3-ylamino)propan-2-ol]: 242 nM; for `O=S(=O)(c1cncc(Br)c1)N1CCC2(CC1)C[C@@H](NC[C@H](O)COc1cccc(S(=O)(=O)C3(CO)CC3)c1)CO2` [Compound 185, (S)-1-((R)-8-(5-bromopyridin-3-ylsulfonyl)-1-oxa-8-azaspiro[4.5]decan-3-ylamino)-3-(3-(1-(hydroxymethyl)cyclopropylsulfonyl)phenoxy)propan-2-ol]: 258 nM; for `CCOc1ccc(-c2ccc(CN)c(F)c2)cc1S(=O)(=O)N1CCC2(CC1)C[C@H](NC[C@H](O)COc1cccc(S(=O)(=O)C3(CO)CC3)c1)CO2` [Compound 220, (S)-1-((S)-8-(4′-(aminomethyl)-4-ethoxy-3′-fluorobiphenyl-3-ylsulfonyl)-1-oxa-8-azaspiro[4.5]decan-3-ylamino)-3-(3-(1-(hydroxymethyl)cyclopropylsulfonyl)phenoxy)propan-2-ol]: 27.5 nM.
Take `CCOc1ccc(-c2ccc(CN)cc2)cc1S(=O)(=O)N1CCC2(CC1)C[C@@H](NC[C@H](O)COc1cccc(S(=O)(=O)C(F)(F)CO)c1)CO2` [Compound 161, (S)-1-((R)-8-(4′-(aminomethyl)-4-ethoxybiphenyl-3-ylsulfonyl)-1-oxa-8-azaspiro[4.5]decan-3-ylamino)-3-(3-(1,1-difluoro-2-hydroxyethylsulfonyl)phenoxy)propan-2-ol]: the concentration for half-maximal inhibition (IC50) is 21.1 nM.
The same measure for `CN1CCOc2ncc(S(=O)(=O)N3CCC4(CC3)C[C@@H](NC[C@H](O)COc3cccc(S(=O)(=O)C(F)(F)CO)c3)CO4)cc21` [Compound 156, (S)-1-(3-(1,1-difluoro-2-hydroxyethylsulfonyl)phenoxy)-3-((R)-8-(1-methyl-2,3-dihydro-1H-pyrido[2,3-b][1,4]oxazin-7-ylsulfonyl)-1-oxa-8-azaspiro[4.5]decan-3-ylamino)propan-2-ol]: 24.8 nM.
For `CS(=O)(=O)c1cccc(OC[C@@H](O)CNC2COC3(CCN(S(=O)(=O)c4cccc(-c5cnn(C6CC6)c5)c4)CC3)C2)c1` (stereo partly drawn) [Compound 39, (2S)-1-(8-(3-(1-cyclopropyl-1H-pyrazol-4-yl)phenylsulfonyl)-1-oxa-8-azaspiro[4.5]decan-3-ylamino)-3-(3-(methylsulfonyl)phenoxy)propan-2-ol] the value was 70.8 nM; for `CCCCNCc1ccc(-c2cccc(S(=O)(=O)N3CCC4(CC3)C[C@H](NC[C@H](O)COc3cccc(S(=O)(=O)C5(CO)CC5)c3)CO4)c2)cc1` [Compound 245, (S)-1-((S)-8-(4′-((butylamino)methyl)biphenyl-3-ylsulfonyl)-1-oxa-8-azaspiro[4.5]decan-3-ylamino)-3-(3-(1-(hydroxymethyl)cyclopropylsulfonyl)phenoxy)propan-2-ol], 18.4 nM.
The same measure for `CCS(=O)(=O)c1cccc(OC[C@@H](O)CN[C@@H]2COC3(CCN(S(=O)(=O)c4ccc5ccccc5c4)CC3)C2)c1` [Compound 27, (S)-1-(3-(ethylsulfonyl)phenoxy)-3-((S)-8-(naphthalen-2-ylsulfonyl)-1-oxa-8-azaspiro[4.5]decan-3-ylamino)propan-2-ol]: 19.3 nM; for `CC(C)S(=O)(=O)c1cccc(OC[C@@H](O)CN[C@H]2COC3(CCN(S(=O)(=O)c4cnc5c(F)cccc5c4O)CC3)C2)c1` [Compound 323, 8-fluoro-3-((R)-3-((S)-2-hydroxy-3-(3-(isopropylsulfonyl)phenoxy)propylamino)-1-oxa-8-azaspiro[4.5]decan-8-ylsulfonyl)quinolin-4-ol]: 49.6 nM; for `O=S(=O)(c1cccc(-c2ccc(CNCC(F)(F)F)cc2)c1)N1CCC2(CC1)C[C@H](NC[C@H](O)COc1cccc(S(=O)(=O)C3(CO)CC3)c1)CO2` [Compound 242, (S)-1-(3-(1-(hydroxymethyl)cyclopropylsulfonyl)phenoxy)-3-((S)-8-(4′-((2,2,2-trifluoroethylamino)methyl)biphenyl-3-ylsulfonyl)-1-oxa-8-azaspiro[4.5]decan-3-ylamino)propan-2-ol]: 35.5 nM.
In the case of `COc1ccc(S(=O)(=O)N2CCC3(CC2)C[C@H](NC[C@H](O)COc2cccc(S(=O)(=O)C4(CO)CC4)c2)CO3)cc1-c1ccc(C2(N)CC2)cc1` [Compound 225, (S)-1-((S)-8-(4′-(1-aminocyclopropyl)-6-methoxybiphenyl-3-ylsulfonyl)-1-oxa-8-azaspiro[4.5]decan-3-ylamino)-3-(3-(1-(hydroxymethyl)cyclopropylsulfonyl)phenoxy)propan-2-ol], the IC50 stood at 33.1 nM.
`O=S(=O)(CCCO)c1cccc(OC[C@@H](O)CN[C@H]2COC3(CCN(S(=O)(=O)c4ccc5ncccc5c4)CC3)C2)c1` [Compound 121, 3-(3-((S)-2-hydroxy-3-((R)-8-(quinolin-6-ylsulfonyl)-1-oxa-8-azaspiro[4.5]decan-3-ylamino)propoxy)phenylsulfonyl)propan-1-ol]: the 50% inhibitory concentration (IC50) was determined as 562 nM.
Turning to `CCOc1ccc(-c2ccc(CN)cc2)cc1S(=O)(=O)N1CCC2(CC1)C[C@H](NC[C@H](O)COc1cccc(S(=O)(=O)C(F)(F)CO)c1)CO2` [Compound 168, (S)-1-((S)-8-(4′-(aminomethyl)-4-ethoxybiphenyl-3-ylsulfonyl)-1-oxa-8-azaspiro[4.5]decan-3-ylamino)-3-(3-(1,1-difluoro-2-hydroxyethylsulfonyl)phenoxy)propan-2-ol], the IC50 came out at 15.4 nM.
The same measure for `COc1ccc(S(=O)(=O)N2CCC3(CC2)C[C@@H](NC[C@H](O)COc2cccc(S(=O)(=O)C4CC4)c2)CO3)cc1-c1ccc(C2(N)CC2)cc1` [Compound 255, (S)-1-((R)-8-(4′-(1-aminocyclopropyl)-6-methoxybiphenyl-3-ylsulfonyl)-1-oxa-8-azaspiro[4.5]decan-3-ylamino)-3-(3-(cyclopropylsulfonyl)phenoxy)propan-2-ol]: 27.9 nM.
